Reference: the SangsterLogP compilation

experiment: method code SF-AS, from DOI: 10.1016/j.ejmech.2011.01.053, PMID: 21334792; conditions: pH 7.4

Row | Compound | logD
1 | CC(C)(C)C(=O)NC(C(=O)ON=C1c2ccccc2-c2c1c(N1CCN(c3ccccn3)CC1)nc1ccc(Br)cc21)C(C)(C)C (stereo not drawn) | 1.5
2 | CN(C)C(=O)ON=C1c2ccccc2-c2c1c(N1CCN(c3ccccn3)CC1)nc1ccc(Br)cc21 | 2.34
3 | CCCCCC(=O)ON=C1c2ccccc2-c2c1c(N1CCN(c3ccc[nH]3)CC1)nc1ccc(Br)cc21 | 2.06
4 | CCCCCC(=O)ON=C1c2ccccc2-c2c1c(C1C=CN=C1)nc1ccc(Br)cc21 (stereo not drawn) | 2.11
5 | CC(C)(C)OC(=O)NC(Cc1cccc(F)c1)ON=C1c2ccccc2-c2c1c(N1CCN(c3ccccn3)CC1)nc1ccc(Br)cc21 (stereo not drawn) | 1.14
6 | CC1(O)c2ccccc2-c2c1c(-n1ccnc1)nc1ccc(Br)cc21 (stereo not drawn) | 1.73
7 | CCCCC(=O)ON=C1c2ccccc2-c2c1c(C1C=CN=C1)nc1ccc(Br)cc21 (stereo not drawn) | 1.64
8 | O=C(C=Cc1ccco1)ON=C1C2=C(c3ccccc31)c1c(Br)cccc1NC2N1CCN(c2ccccn2)CC1 (stereo not drawn) | 1.43
9 | ON=C1c2ccccc2-c2c1c(C1C=CN=C1)nc1ccc(Br)cc21 (stereo not drawn) | 0.23

Further lines, results first:

Row | logD | Compound
10 | 1.28 | CC(C)(C)OC(=O)N1CCCC1C(=O)O/N=C1\c2ccccc2-c2c1c(-n1ccnc1)nc1ccc(Br)cc21 (stereo not drawn)
11 | 1.83 | CC1(OC(=O)CC(F)(F)F)c2ccccc2-c2c1c(-n1ccnc1)nc1ccc(Br)cc21 (stereo not drawn)
12 | 1.47 | O=C(CCCCBr)ON=C1c2ccccc2-c2c1c(N1CCN(c3ccccn3)CC1)nc1ccc(Br)cc21
13 | 0.7 | CC(C)(C)OC(=O)NCC(=O)ON=C1c2ccccc2-c2c1c(N1CCN(c3ccccn3)CC1)nc1cccc(Br)c21
14 | 2.65 | CCC(=O)ON=C1c2ccccc2-c2c1c(N1CCN(c3ccccn3)CC1)nc1ccc(Br)cc21
15 | 1.18 | CC(=O)NCC(=O)ON=C1c2ccccc2-c2c1c(N1CCN(c3ccccn3)CC1)nc1ccc(Br)cc21
16 | 1.17 | CCCC(=O)O/N=C1\c2ccccc2-c2c1c(-n1ccnc1)nc1ccc(Br)cc21
17 | 1.51 | CCCCCCC(=O)ON=C1c2ccccc2-c2c1c(C1C=CN=C1)nc1ccc(Br)cc21 (stereo not drawn)
18 | 1.11 | CC(=O)ON=C1c2ccccc2-c2c1c(C1C=CN=C1)nc1ccc(Br)cc21 (stereo not drawn)
